Literature values in US20180289421A1, “SYSTEMS AND METHODS FOR TREATING NAIL FUNGUS” (Terimber Corporation, priority 2017, published 2018).

What was measured:
[1] = systemic antifungal therapy
[2] = tested on: onychomycosis; conditions: oral, 12-week course

CCC(C)n1ncn(-c2ccc(N3CCN(c4ccc(OCC5COC(Cn6cncn6)(c6ccc(Cl)cc6Cl)O5)cc4)CC3)cc2)c1=O (stereo not shown) [Itraconazole]
cardiac toxicity [1]: may induce cardiac toxicity

CN(C/C=C/C#CC(C)(C)C)Cc1cccc2ccccc12 [terbinafine, [(2E)-6,6-dimethylhept-2-en-4-yn-1-yl](methyl)(naphthalen-1-ylmethyl)amine]
maximal clinical response rate [2]: 60%-70% | mycologic cure rate [2]: 71%-82% | liver toxicity [1]: can elevate liver enzymes and has progressed to fulminant liver failure
